From ChEMBL document CHEMBL5465560, “Selectivity Literature for EUbOPEN Chemogenomic Library” (2024) come the findings set out here.

For assay [1], the target named is Leukocyte tyrosine kinase receptor (Homo sapiens, UniProt P29376). In words: Selectivity interaction (Kinase panel (Z-LYTE Assay)) EUB0001632a LTK. As to conditions: at 10 µM.
Assay [2] deals with Proto-oncogene tyrosine-protein kinase receptor Ret (Homo sapiens), P07949 [V804M]. In words: (§1) Selectivity interaction (KinomeScan (DiscoverX)) EUB0001619a RET. As to conditions: at 1 µM.
Assay [3] relates to Proto-oncogene tyrosine-protein kinase receptor Ret (Homo sapiens), P07949 [V804L]. Described as §1. The settings on record: at 1 µM.
For assay [4], the target named is Proto-oncogene tyrosine-protein kinase receptor Ret (Homo sapiens, UniProt P07949). The assay is described as §1. The settings on record: at 1 µM.
Assay [5] has as its system Proto-oncogene tyrosine-protein kinase receptor Ret (Homo sapiens), P07949 [M918T]. The description is as §1. The settings on record: at 1 µM.
Assay [6] addresses Tyrosine-protein kinase JAK2 (Homo sapiens, UniProt O60674). In words: Selectivity interaction (KinomeScan (DiscoverX)) EUB0001619a JAK2. The settings on record: at 1 µM.
In assay [7] the target is T1, Serine/threonine-protein kinase STK11 (Homo sapiens) (UniProt Q15831).
T1 sequence (whole entry): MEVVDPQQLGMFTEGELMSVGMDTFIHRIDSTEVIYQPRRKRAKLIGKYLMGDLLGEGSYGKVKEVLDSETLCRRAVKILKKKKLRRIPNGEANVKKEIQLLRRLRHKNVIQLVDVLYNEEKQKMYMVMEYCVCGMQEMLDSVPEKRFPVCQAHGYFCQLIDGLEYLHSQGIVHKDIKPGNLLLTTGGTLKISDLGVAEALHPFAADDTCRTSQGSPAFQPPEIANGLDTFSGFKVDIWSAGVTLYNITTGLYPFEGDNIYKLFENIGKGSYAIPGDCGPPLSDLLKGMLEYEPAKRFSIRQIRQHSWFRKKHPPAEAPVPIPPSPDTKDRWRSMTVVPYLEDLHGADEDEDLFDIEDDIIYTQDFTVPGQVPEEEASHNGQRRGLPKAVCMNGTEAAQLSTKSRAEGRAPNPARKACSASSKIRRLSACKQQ
In words: Selectivity interaction (KinomeScan (DiscoverX)) EUB0000666a STK11. The settings on record: at 10 µM.

Assay [8] deals with T2, Muscle, skeletal receptor tyrosine-protein kinase (Homo sapiens) (UniProt O15146).
T2 sequence (whole entry): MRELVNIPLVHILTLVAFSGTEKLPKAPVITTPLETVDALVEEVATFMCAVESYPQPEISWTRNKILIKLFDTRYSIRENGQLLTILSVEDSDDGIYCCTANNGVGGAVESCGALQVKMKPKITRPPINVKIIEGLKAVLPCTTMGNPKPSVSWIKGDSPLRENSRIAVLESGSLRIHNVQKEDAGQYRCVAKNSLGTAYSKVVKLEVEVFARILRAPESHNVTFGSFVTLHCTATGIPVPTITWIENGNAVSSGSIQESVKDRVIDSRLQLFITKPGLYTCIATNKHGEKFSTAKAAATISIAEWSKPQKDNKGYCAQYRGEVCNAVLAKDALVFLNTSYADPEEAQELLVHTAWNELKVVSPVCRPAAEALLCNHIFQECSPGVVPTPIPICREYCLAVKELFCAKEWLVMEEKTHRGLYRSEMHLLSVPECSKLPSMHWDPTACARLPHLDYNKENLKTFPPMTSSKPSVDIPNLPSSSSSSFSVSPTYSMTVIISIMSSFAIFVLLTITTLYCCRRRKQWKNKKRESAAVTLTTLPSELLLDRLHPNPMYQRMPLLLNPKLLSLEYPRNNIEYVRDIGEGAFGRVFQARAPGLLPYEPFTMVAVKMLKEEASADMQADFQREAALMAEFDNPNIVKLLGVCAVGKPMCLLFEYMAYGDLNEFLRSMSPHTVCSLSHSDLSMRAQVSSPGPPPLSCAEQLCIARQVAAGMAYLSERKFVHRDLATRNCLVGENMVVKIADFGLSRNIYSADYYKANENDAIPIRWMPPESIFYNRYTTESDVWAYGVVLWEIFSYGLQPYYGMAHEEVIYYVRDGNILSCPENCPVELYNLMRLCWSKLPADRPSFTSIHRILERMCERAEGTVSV
Description: Selectivity interaction (SelectScreen profiling (Invitrogen)) EUB0000607a MUSK. As to conditions: at 2 µM.

Assay [9] concerns the target T3, Interleukin-1 receptor-associated kinase 3 (Homo sapiens) (UniProt Q9Y616).
T3 sequence (whole entry): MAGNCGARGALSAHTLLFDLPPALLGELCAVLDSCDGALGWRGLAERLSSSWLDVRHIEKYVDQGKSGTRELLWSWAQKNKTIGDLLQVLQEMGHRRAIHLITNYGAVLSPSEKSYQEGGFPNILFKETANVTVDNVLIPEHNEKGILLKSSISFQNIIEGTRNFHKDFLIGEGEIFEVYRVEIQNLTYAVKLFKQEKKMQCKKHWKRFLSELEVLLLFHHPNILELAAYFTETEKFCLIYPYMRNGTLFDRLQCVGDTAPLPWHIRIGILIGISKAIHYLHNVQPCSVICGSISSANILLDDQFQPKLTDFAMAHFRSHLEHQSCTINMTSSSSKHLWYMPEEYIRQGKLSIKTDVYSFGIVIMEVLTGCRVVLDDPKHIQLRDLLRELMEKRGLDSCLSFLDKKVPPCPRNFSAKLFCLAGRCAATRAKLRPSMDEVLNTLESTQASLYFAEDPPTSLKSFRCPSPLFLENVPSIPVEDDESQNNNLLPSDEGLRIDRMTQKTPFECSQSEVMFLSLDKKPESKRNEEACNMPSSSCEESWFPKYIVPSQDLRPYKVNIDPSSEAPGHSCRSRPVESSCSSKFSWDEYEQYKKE
In words: Selectivity interaction (KinomeScan (DiscoverX)) EUB0000607a IRAK3. As to conditions: at 10 µM.

The target of assay [10] is Serine/threonine-protein kinase SIK2 (Homo sapiens) (UniProt Q9H0K1). The settings on record: at 10 µM.
In assay [11] the target is Platelet-derived growth factor receptor alpha (Homo sapiens, UniProt P16234). As to conditions: at 10 µM.
The target of assay [12] is Nucleosome-remodeling factor subunit BPTF (Homo sapiens, UniProt Q12830). In words: Selectivity interaction (Human bromodomain panel (DSF assay)) EUB0000233b BPTF. (In general: DSF heats the sample and reads unfolding from a dye or from intrinsic fluorescence.)
In assay [13] the target is Serine/threonine-protein kinase Nek7 (Homo sapiens) (UniProt Q8TDX7). In words: Selectivity interaction (KinomeScan (DiscoverX)) EUB0000229b NEK7. As to conditions: at 10 µM.
Sequence of Serine/threonine-protein kinase Nek7 (Homo sapiens) (Q8TDX7 whole entry, looked up): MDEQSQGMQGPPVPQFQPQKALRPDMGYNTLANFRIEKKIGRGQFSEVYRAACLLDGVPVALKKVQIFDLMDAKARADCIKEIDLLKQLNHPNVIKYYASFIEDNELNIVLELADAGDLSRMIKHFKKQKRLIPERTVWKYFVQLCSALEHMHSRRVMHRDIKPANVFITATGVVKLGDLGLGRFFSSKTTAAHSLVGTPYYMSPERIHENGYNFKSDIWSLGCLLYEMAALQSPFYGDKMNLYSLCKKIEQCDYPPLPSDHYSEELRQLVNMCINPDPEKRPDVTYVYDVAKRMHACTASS

Sequence of Proto-oncogene tyrosine-protein kinase receptor Ret (Homo sapiens), P07949 [V804L] (P07949 whole entry V804L): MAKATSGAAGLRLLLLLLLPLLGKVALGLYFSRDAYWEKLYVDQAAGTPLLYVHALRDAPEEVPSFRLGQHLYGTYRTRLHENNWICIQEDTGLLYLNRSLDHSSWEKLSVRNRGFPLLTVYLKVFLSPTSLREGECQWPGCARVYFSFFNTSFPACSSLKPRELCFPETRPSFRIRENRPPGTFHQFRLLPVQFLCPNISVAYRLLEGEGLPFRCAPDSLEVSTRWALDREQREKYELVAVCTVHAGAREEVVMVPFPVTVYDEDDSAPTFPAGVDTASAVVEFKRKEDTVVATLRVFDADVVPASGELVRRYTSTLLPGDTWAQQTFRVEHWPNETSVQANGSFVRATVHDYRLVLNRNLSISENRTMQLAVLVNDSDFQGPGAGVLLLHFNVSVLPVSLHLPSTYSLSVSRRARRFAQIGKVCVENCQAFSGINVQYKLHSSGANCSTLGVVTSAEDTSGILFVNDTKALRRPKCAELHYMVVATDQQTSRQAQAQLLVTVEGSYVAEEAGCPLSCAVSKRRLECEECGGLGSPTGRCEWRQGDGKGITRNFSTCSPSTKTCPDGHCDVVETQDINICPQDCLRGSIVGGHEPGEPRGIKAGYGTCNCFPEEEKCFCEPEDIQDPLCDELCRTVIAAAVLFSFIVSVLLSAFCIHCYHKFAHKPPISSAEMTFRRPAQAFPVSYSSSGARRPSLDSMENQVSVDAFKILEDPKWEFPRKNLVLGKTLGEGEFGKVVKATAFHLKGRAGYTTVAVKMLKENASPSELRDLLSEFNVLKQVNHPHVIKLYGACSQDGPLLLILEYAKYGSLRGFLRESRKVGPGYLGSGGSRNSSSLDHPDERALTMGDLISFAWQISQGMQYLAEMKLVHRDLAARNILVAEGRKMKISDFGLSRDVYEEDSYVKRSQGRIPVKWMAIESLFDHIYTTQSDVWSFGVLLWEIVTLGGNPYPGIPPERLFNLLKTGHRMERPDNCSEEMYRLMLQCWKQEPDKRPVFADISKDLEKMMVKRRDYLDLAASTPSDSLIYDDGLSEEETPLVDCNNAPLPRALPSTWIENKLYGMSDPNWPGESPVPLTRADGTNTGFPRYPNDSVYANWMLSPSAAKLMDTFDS
Sequence of Proto-oncogene tyrosine-protein kinase receptor Ret (P07949 whole entry): as the sequence (P07949 whole entry V804L) above, with L804V counted along it
Sequence of Tyrosine-protein kinase JAK2 (O60674 whole entry): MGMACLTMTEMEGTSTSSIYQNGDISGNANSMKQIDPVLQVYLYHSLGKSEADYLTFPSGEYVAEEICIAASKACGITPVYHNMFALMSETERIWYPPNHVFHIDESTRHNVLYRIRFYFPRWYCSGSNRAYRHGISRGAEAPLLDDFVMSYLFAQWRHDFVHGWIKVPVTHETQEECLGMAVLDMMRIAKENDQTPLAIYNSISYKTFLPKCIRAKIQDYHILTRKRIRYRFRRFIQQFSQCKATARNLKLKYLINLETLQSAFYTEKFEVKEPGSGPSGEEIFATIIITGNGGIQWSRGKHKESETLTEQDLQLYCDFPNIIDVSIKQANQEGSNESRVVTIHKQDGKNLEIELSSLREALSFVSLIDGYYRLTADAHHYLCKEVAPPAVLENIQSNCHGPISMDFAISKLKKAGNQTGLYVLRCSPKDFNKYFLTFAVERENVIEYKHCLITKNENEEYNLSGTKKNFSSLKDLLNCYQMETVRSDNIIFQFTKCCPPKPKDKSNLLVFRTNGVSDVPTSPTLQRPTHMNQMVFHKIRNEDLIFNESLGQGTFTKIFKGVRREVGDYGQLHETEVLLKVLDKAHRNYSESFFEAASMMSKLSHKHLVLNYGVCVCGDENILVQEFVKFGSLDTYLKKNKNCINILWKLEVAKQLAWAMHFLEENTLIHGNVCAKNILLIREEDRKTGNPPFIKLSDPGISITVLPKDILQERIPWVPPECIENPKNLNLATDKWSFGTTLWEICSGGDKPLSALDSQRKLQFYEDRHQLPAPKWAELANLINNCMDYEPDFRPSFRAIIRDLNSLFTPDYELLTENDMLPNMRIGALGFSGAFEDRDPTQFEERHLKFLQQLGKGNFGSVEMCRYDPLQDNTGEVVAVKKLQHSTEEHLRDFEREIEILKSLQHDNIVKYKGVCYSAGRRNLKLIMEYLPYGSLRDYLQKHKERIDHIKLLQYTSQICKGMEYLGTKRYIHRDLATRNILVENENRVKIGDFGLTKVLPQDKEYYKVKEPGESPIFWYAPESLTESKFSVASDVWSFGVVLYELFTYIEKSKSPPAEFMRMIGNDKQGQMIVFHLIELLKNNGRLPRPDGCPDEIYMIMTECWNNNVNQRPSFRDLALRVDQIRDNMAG
Sequence of Serine/threonine-protein kinase SIK2 (Homo sapiens) (Q9H0K1 whole entry, looked up): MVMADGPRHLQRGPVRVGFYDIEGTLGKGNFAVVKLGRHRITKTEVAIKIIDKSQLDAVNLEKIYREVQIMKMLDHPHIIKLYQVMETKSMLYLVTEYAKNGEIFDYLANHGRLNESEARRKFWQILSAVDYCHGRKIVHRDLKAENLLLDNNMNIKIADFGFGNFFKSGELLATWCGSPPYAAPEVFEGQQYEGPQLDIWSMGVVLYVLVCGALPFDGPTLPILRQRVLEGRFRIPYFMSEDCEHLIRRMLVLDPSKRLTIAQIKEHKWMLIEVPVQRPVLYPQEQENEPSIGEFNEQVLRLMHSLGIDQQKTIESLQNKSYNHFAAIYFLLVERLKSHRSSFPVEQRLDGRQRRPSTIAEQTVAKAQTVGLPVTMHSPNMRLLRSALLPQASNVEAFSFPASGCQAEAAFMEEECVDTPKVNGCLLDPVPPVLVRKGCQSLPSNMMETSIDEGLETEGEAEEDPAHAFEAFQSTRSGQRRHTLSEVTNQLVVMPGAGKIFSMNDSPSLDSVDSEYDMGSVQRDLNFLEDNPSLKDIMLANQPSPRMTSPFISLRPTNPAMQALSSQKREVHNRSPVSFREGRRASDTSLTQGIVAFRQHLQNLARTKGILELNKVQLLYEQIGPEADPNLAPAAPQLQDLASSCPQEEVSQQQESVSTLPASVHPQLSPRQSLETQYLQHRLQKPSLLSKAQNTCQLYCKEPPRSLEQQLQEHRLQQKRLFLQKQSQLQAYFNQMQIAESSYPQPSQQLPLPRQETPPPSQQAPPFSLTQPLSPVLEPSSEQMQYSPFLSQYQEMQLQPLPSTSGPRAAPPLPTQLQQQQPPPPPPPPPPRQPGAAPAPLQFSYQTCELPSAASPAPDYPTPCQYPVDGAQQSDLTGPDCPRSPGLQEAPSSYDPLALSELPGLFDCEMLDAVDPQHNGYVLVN
Sequence of Leukocyte tyrosine kinase receptor (P29376 whole entry): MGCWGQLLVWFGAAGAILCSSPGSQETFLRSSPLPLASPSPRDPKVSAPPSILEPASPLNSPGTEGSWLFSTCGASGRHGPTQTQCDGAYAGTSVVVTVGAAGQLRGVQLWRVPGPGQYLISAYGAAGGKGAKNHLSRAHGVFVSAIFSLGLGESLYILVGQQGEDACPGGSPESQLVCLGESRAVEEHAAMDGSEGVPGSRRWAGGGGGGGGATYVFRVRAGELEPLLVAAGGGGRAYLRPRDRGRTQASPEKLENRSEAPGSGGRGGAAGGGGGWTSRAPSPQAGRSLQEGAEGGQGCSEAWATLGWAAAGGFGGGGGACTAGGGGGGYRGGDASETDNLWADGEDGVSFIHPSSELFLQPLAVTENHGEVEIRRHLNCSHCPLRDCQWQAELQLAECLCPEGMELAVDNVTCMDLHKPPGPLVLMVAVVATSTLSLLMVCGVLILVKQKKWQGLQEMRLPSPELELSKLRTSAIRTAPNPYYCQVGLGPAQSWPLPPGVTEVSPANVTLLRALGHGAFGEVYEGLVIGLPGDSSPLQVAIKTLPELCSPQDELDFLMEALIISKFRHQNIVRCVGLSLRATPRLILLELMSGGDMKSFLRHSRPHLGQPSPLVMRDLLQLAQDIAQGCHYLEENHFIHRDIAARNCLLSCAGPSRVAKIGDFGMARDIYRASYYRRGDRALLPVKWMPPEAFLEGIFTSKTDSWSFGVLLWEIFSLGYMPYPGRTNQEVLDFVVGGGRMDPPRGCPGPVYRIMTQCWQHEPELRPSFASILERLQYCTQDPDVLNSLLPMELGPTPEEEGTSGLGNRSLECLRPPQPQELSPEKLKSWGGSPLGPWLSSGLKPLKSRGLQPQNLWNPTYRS
Sequence of Proto-oncogene tyrosine-protein kinase receptor Ret (Homo sapiens), P07949 [V804M] (P07949 whole entry V804M): as the sequence (P07949 whole entry V804L) above, with L804M counted along it
Sequence of Proto-oncogene tyrosine-protein kinase receptor Ret (Homo sapiens), P07949 [M918T] (P07949 whole entry M918T): as the sequence (P07949 whole entry V804L) above, with L804V, M918T counted along it

Consider `Cn1cc(-n2cnc3c(NCc4nc5cc(Cl)c(Cl)cc5[nH]4)nc(N4CCOCC4)nc32)cn1`, for which the % of control in assay [1] came to 3.23%.

On to `N#Cc1cccc(-c2c[nH]c3ncnc(N4CCOCC4)c23)c1`, for which the % of control in assay [2] was found to be 58%; in assay [3], 95%; in [4] it was 78%; in [5], 70%; in assay [6] it was 71%.

The compound `O=C(NOC[C@H](O)CO)c1ccc(F)c(F)c1Nc1ccc(I)cc1F` registered a % of control in [7] of 83%.

In turn, `CNC(=O)Nc1ccc(-c2nc(N3CC4CCC(C3)O4)c3cnn(C4CCC5(CC4)OCCO5)c3n2)cc1` returned a % of inhibition in assay [8] of 15%. In assay [9], the % of control stood at 100%.

`Cc1cc([C@@H](C)Nc2ccccc2C(=O)O)c2nc(N3CCOCC3)cc(=O)n2c1` [AZD-6482]: the values for the % of control in assay [10] and in assay [11] were 100% and 84%, respectively.

In turn, `CN(C)CCCOc1ccc(-c2cc(NCCCn3cccn3)nc(S(C)(=O)=O)n2)cc1` came in with a dTM in assay [12] of 3.8 K.

For the compound `COc1cc(N(C)c2ccnc3ccc(C(F)(F)F)cc23)cc(OC)c1OC`, the % binding in [13] was determined as 100%.
